From patent US20250353891A1 (MEDIMMUNE LIMITED, priority 2022, published 2025)
Starred links: 1 amine or outer side, 2 acyl side, 3 side chain; linkers in the order of their positions; H or OH if unused. Non-standard residues stand in square brackets, D forms with d. Residues, ends and D or L forms follow the SMILES beside them. Groups on a side chain read outwards from the residue. *: point of attachment. Heptadecanoyl = CCCCCCCCCCCCCCCCC(=O)*; γGlu = O=C(O)[C@H](CCC(=O)[*:2])N[*:1]; Stearoyl = CCCCCCCCCCCCCCCCCC(=O)*; Palmitoyl = CCCCCCCCCCCCCCCC(=O)*; αMeF = C[C@](N)(Cc1ccccc1)C(=O)O; PEG2 = NCCOCCOCCC(=O)O; Aib = CC(C)(N)C(=O)O

What was measured:
[1] = target: human GLP-1 receptor (hGLP-1R) (Homo sapiens, UniProt P43220); test: cAMP production (HTRF) in CHO cells expressing hGLP-1R; type: cell-based; design: expressed in transfected cells; conditions: for % Relative Potency Ratio: Table 6, % GLP-1R activity relative to GLP-1 / % GlucR activity relative to glucagon; for EC50: Table 6, peptides modified at position 17, cAMP in CHO hGLP-1R cells, geometric mean, read-out: hGLP-1R EC50
human GLP-1 receptor (hGLP-1R), sequence (P43220 24-463): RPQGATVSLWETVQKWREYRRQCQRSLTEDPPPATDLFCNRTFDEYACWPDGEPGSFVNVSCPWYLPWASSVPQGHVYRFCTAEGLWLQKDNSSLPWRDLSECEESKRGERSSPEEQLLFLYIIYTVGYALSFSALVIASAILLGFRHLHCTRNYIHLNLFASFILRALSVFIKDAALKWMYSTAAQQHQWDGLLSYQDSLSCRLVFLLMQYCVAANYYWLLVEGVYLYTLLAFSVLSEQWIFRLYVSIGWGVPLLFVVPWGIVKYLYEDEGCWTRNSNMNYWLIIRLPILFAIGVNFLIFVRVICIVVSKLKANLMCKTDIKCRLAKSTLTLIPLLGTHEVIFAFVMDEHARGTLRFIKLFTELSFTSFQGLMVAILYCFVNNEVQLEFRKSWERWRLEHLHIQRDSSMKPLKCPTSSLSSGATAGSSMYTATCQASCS
Procedure, shortened: (§1)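 Potency values represent EC50 from 4-parameter logistic curves of HTRF % Delta F signal. Receptor-expressing CHO cells (hGCGR 2×10^5 cells/mL, hGLP-1R 1×10^5 cells/mL) were exposed for 30 min at room temperature before two-step cAMP detection.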

[2] = target: human glucagon receptor (hGCGR) (Homo sapiens, UniProt P47871); test: cAMP production (HTRF) in CHO cells expressing hGCGR; type: cell-based; design: expressed in transfected cells; conditions: Table 6, peptides modified at position 17; cAMP in CHO hGCGR cells; geometric mean; read-out: hGluc-R EC50
human glucagon receptor (hGCGR), sequence (P47871 26-477): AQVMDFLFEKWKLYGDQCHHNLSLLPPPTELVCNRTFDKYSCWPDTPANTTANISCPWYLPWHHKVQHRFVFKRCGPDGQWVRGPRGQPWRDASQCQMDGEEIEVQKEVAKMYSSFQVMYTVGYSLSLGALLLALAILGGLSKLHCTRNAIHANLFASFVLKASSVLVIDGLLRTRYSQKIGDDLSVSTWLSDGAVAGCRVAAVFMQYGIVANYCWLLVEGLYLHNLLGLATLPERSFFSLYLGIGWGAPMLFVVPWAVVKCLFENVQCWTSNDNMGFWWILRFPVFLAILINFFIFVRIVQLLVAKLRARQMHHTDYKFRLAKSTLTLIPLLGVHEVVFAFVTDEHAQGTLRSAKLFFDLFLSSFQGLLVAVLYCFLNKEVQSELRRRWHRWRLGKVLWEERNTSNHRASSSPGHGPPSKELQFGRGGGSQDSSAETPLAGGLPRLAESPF
Procedure, shortened: as §1

Row | SMILES | % Relative Potency Ratio [1] | EC50 [2] [pM] | EC50 [1] [pM]
1 | CCCCCCCCCCCCCCCCCC(=O)N[C@@H](CCC(=O)N[C@@H](CCC(=O)NCCOCCOCCC(=O)NCCOCCOCCC(=O)NCCCC[C@H](NC(=O)[C@H](CO)NC(=O)[C@H](CC(=O)O)NC(=O)[C@H](CC(C)C)NC(=O)[C@](C)(Cc1ccccc1)NC(=O)[C@H](CCCCN)NC(=O)[C@H](CO)NC(=O)[C@@H](NC(=O)[C@H](CC(=O)O)NC(=O)[C@H](CO)NC(=O)[C@@H](NC(=O)[C@](C)(Cc1ccccc1)NC(=O)[C@H](CO)NC(=O)CNC(=O)[C@H](CCC(N)=O)NC(=O)[C@H](CO)NC(=O)[C@@H](N)Cc1c[nH]cn1)[C@@H](C)O)C(C)C)C(=O)N[C@@H](C)C(=O)N[C@@H](C)C(=O)N[C@@H](CCC(N)=O)C(=O)N[C@@H](CC(=O)O)C(=O)N[C@@](C)(Cc1ccccc1)C(=O)N[C@H](C(=O)N[C@@H](CCC(N)=O)C(=O)NC(C)(C)C(=O)N[C@H](C(=O)N[C@@H](C)C(=O)N[C@@H](CC(N)=O)C(N)=O)[C@@H](C)CC)C(C)C)C(=O)O)C(=O)O [Peptide 86] (H-HSQGS[αMeF]TSDVSK[αMeF]LDSK([PEG2-PEG2-γGlu-γGlu-Stearoyl])AAQD[αMeF]VQ[Aib]IAN-NH2; N-terminus assumed) | 16.6 | 6.46 | 
2 | CCCCCCCCCCCCCCCC(=O)N[C@@H](CCC(=O)N[C@@H](CCC(=O)NCCOCCOCCC(=O)NCCOCCOCCC(=O)NCCCC[C@H](NC(=O)[C@H](CO)NC(=O)[C@H](CC(=O)O)NC(=O)[C@H](CC(C)C)NC(=O)[C@](C)(Cc1ccccc1)NC(=O)[C@H](CCCCN)NC(=O)[C@H](CO)NC(=O)[C@@H](NC(=O)[C@H](CC(=O)O)NC(=O)[C@H](CO)NC(=O)[C@@H](NC(=O)[C@](C)(Cc1ccccc1)NC(=O)[C@H](CO)NC(=O)CNC(=O)[C@H](CCC(N)=O)NC(=O)[C@H](CO)NC(=O)[C@@H](N)Cc1c[nH]cn1)[C@@H](C)O)C(C)C)C(=O)N[C@@H](C)C(=O)N[C@@H](C)C(=O)N[C@@H](CCC(N)=O)C(=O)N[C@@H](CC(=O)O)C(=O)N[C@@](C)(Cc1ccccc1)C(=O)N[C@H](C(=O)N[C@@H](CCC(N)=O)C(=O)NC(C)(C)C(=O)N[C@H](C(=O)N[C@@H](C)C(=O)N[C@@H](CC(N)=O)C(N)=O)[C@@H](C)CC)C(C)C)C(=O)O)C(=O)O [Peptide 87] (H-HSQGS[αMeF]TSDVSK[αMeF]LDSK([PEG2-PEG2-γGlu-γGlu-Palmitoyl])AAQD[αMeF]VQ[Aib]IAN-NH2; N-terminus assumed) | 13.0 | 8.46 | 1.29
3 | CCCCCCCCCCCCCCCCC(=O)N[C@@H](CCC(=O)N[C@@H](CCC(=O)NCCOCCOCCC(=O)NCCOCCOCCC(=O)NCCCC[C@H](NC(=O)[C@H](CO)NC(=O)[C@H](CC(=O)O)NC(=O)[C@H](CC(C)C)NC(=O)[C@](C)(Cc1ccccc1)NC(=O)[C@H](CCCCN)NC(=O)[C@H](CO)NC(=O)[C@@H](NC(=O)[C@H](CC(=O)O)NC(=O)[C@H](CO)NC(=O)[C@@H](NC(=O)[C@](C)(Cc1ccccc1)NC(=O)[C@H](CO)NC(=O)CNC(=O)[C@H](CCC(N)=O)NC(=O)[C@H](CO)NC(=O)[C@@H](N)Cc1c[nH]cn1)[C@@H](C)O)C(C)C)C(=O)N[C@@H](C)C(=O)N[C@@H](C)C(=O)N[C@@H](CCC(N)=O)C(=O)N[C@@H](CC(=O)O)C(=O)N[C@@](C)(Cc1ccccc1)C(=O)N[C@H](C(=O)N[C@@H](CCC(N)=O)C(=O)NC(C)(C)C(=O)N[C@H](C(=O)N[C@@H](C)C(=O)N[C@@H](CC(N)=O)C(N)=O)[C@@H](C)CC)C(C)C)C(=O)O)C(=O)O [Peptide 88] (H-HSQGS[αMeF]TSDVSK[αMeF]LDSK([PEG2-PEG2-γGlu-γGlu-Heptadecanoyl])AAQD[αMeF]VQ[Aib]IAN-NH2; N-terminus assumed) | 12.3 | 6.47 | 1.04
4 | CCCCCCCCCCCCCCCC(=O)N[C@@H](CCC(=O)N[C@@H](CCC(=O)NCCOCCOCCC(=O)NCCOCCOCCC(=O)NCCCC[C@H](NC(=O)[C@H](CO)NC(=O)[C@H](CC(=O)O)NC(=O)[C@H](CC(C)C)NC(=O)[C@](C)(Cc1ccccc1)NC(=O)[C@H](CCCCN)NC(=O)[C@H](CO)NC(=O)[C@@H](NC(=O)[C@H](CC(=O)O)NC(=O)[C@H](CO)NC(=O)[C@@H](NC(=O)[C@](C)(Cc1ccccc1)NC(=O)[C@H](CO)NC(=O)CNC(=O)[C@H](CCC(N)=O)NC(=O)[C@H](CO)NC(=O)[C@@H](N)Cc1c[nH]cn1)[C@@H](C)O)C(C)C)C(=O)N[C@@H](C)C(=O)N[C@@H](C)C(=O)N[C@@H](CCC(N)=O)C(=O)N[C@@H](CC(=O)O)C(=O)N[C@@](C)(Cc1ccccc1)C(=O)N[C@H](C(=O)N[C@@H](CCC(=O)O)C(=O)NC(C)(C)C(=O)N[C@H](C(=O)N[C@@H](C)C(=O)N[C@@H](CC(N)=O)C(N)=O)[C@@H](C)CC)C(C)C)C(=O)O)C(=O)O [Peptide 90] (H-HSQGS[αMeF]TSDVSK[αMeF]LDSK([PEG2-PEG2-γGlu-γGlu-Palmitoyl])AAQD[αMeF]VE[Aib]IAN-NH2; N-terminus assumed) | 7.0 | 6.61 | 1.87
5 | CCCCCCCCCCCCCCCCCC(=O)N[C@@H](CCC(=O)N[C@@H](CCC(=O)NCCOCCOCCC(=O)NCCOCCOCCC(=O)NCCCC[C@H](NC(=O)[C@H](CO)NC(=O)[C@H](CC(=O)O)NC(=O)[C@H](CC(C)C)NC(=O)C(C)(C)NC(=O)[C@H](CCCCN)NC(=O)[C@H](CO)NC(=O)[C@@H](NC(=O)[C@H](CC(=O)O)NC(=O)[C@H](CO)NC(=O)[C@@H](NC(=O)[C@](C)(Cc1ccccc1)NC(=O)[C@H](CO)NC(=O)CNC(=O)[C@H](CCC(N)=O)NC(=O)[C@H](CO)NC(=O)[C@@H](N)Cc1c[nH]cn1)[C@@H](C)O)C(C)C)C(=O)N[C@@H](C)C(=O)N[C@@H](C)C(=O)N[C@@H](CCC(N)=O)C(=O)N[C@@H](CC(=O)O)C(=O)N[C@@](C)(Cc1ccccc1)C(=O)N[C@H](C(=O)N[C@@H](CCC(N)=O)C(=O)NC(C)(C)C(=O)N[C@@H](CC(C)C)C(=O)N[C@@H](CCC(=O)O)C(=O)N[C@@H](C)C(N)=O)C(C)C)C(=O)O)C(=O)O [Peptide 92] (H-HSQGS[αMeF]TSDVSK[Aib]LDSK([PEG2-PEG2-γGlu-γGlu-Stearoyl])AAQD[αMeF]VQ[Aib]LEA-NH2; N-terminus assumed) | 24.1 | 10.9 | 
6 | CCCCCCCCCCCCCCCCCC(=O)N[C@@H](CCC(=O)N[C@@H](CCC(=O)NCCOCCOCCC(=O)NCCOCCOCCC(=O)NCCCC[C@H](NC(=O)[C@H](CO)NC(=O)[C@H](CC(=O)O)NC(=O)[C@H](CC(C)C)NC(=O)C(C)(C)NC(=O)[C@H](CCCCN)NC(=O)[C@H](CO)NC(=O)[C@@H](NC(=O)[C@H](CC(=O)O)NC(=O)[C@H](CO)NC(=O)[C@@H](NC(=O)[C@](C)(Cc1ccccc1)NC(=O)[C@H](CO)NC(=O)CNC(=O)[C@H](CCC(N)=O)NC(=O)[C@H](CO)NC(=O)[C@@H](N)Cc1c[nH]cn1)[C@@H](C)O)C(C)C)C(=O)N[C@@H](C)C(=O)N[C@@H](C)C(=O)N[C@@H](CCC(N)=O)C(=O)N[C@@H](CC(=O)O)C(=O)N[C@@](C)(Cc1ccccc1)C(=O)N[C@H](C(=O)N[C@@H](CCC(N)=O)C(=O)NC(C)(C)C(=O)N[C@@H](CC(C)C)C(=O)N[C@@H](C)C(=O)N[C@@H](CC(N)=O)C(N)=O)C(C)C)C(=O)O)C(=O)O [Peptide 93] (H-HSQGS[αMeF]TSDVSK[Aib]LDSK([PEG2-PEG2-γGlu-γGlu-Stearoyl])AAQD[αMeF]VQ[Aib]LAN-NH2; N-terminus assumed) | 37.4 | 8.92 | 
7 | CCCCCCCCCCCCCCCCCC(=O)N[C@@H](CCC(=O)N[C@@H](CCC(=O)NCCOCCOCCC(=O)NCCOCCOCCC(=O)NCCCC[C@H](NC(=O)[C@H](CO)NC(=O)[C@H](CC(=O)O)NC(=O)[C@H](CC(C)C)NC(=O)C(C)(C)NC(=O)[C@H](CCCCN)NC(=O)[C@H](CO)NC(=O)[C@@H](NC(=O)[C@H](CC(=O)O)NC(=O)[C@H](CO)NC(=O)[C@@H](NC(=O)[C@](C)(Cc1ccccc1)NC(=O)[C@H](CO)NC(=O)CNC(=O)[C@H](CCC(N)=O)NC(=O)[C@H](CO)NC(=O)[C@@H](N)Cc1c[nH]cn1)[C@@H](C)O)C(C)C)C(=O)N[C@@H](C)C(=O)N[C@@H](C)C(=O)N[C@@H](CCC(N)=O)C(=O)N[C@@H](CC(=O)O)C(=O)N[C@@](C)(Cc1ccccc1)C(=O)N[C@H](C(=O)N[C@@H](CCC(N)=O)C(=O)NC(C)(C)C(=O)N[C@@H](CC(C)C)C(=O)N[C@@H](CO)C(=O)N[C@@H](CCC(=O)O)C(N)=O)C(C)C)C(=O)O)C(=O)O [Peptide 94] (H-HSQGS[αMeF]TSDVSK[Aib]LDSK([PEG2-PEG2-γGlu-γGlu-Stearoyl])AAQD[αMeF]VQ[Aib]LSE-NH2; N-terminus assumed) | 20.7 | 5.4 | 
8 | CCCCCCCCCCCCCCCCCC(=O)N[C@@H](CCC(=O)N[C@@H](CCC(=O)NCCOCCOCCC(=O)NCCOCCOCCC(=O)NCCCC[C@H](NC(=O)[C@H](CO)NC(=O)[C@H](CC(=O)O)NC(=O)[C@H](CC(C)C)NC(=O)C(C)(C)NC(=O)[C@H](CCCCN)NC(=O)[C@H](CO)NC(=O)[C@@H](NC(=O)[C@H](CC(=O)O)NC(=O)[C@H](CO)NC(=O)[C@@H](NC(=O)[C@](C)(Cc1ccccc1)NC(=O)[C@H](CO)NC(=O)CNC(=O)[C@H](CCC(N)=O)NC(=O)[C@H](CO)NC(=O)[C@@H](N)Cc1c[nH]cn1)[C@@H](C)O)C(C)C)C(=O)N[C@@H](C)C(=O)N[C@@H](C)C(=O)N[C@@H](CCC(N)=O)C(=O)N[C@@H](CC(=O)O)C(=O)N[C@@](C)(Cc1ccccc1)C(=O)N[C@H](C(=O)N[C@@H](CCC(N)=O)C(=O)NC(C)(C)C(=O)N[C@@H](CC(C)C)C(=O)N[C@@H](C)C(=O)N[C@@H](CC(N)=O)C(=O)N[C@H](C(N)=O)[C@@H](C)O)C(C)C)C(=O)O)C(=O)O [Peptide 95] (H-HSQGS[αMeF]TSDVSK[Aib]LDSK([PEG2-PEG2-γGlu-γGlu-Stearoyl])AAQD[αMeF]VQ[Aib]LANT-NH2; N-terminus assumed) | 40.6 | 12.5 | 
